Test results taken from BindingDB's records for doi:10.1021/jm0110901 (Carlsberg Laboratory, 2002).
pKi: −log10 of the molar value.

Target: Cysteine protease B CPB2.8ΔCTE (Leishmania mexicana)
Assay: Inhibition of Leishmania mexicana Cysteine protease B (CPB2.8deltaCTE) was obtained in a solution-phase assay

Compound	pKi
CC[C@H](C)[C@H](NC(=O)[C@H](Cc1ccccc1)NC[C@H](Cc1ccccc1)NC(=O)[C@@H](NC(=O)[C@@H]1CCCN1C(=O)[C@@H](N)CCCCN)C(C)C)C(=O)N[C@@H](CC1CCCCC1)C(=O)O	4.89
CC[C@H](C)[C@H](NC[C@H](Cc1ccccc1)NC(=O)[C@H](Cc1cnc[nH]1)NC(=O)[C@H](CCC(N)=O)NC(=O)[C@@H](N)CC(=O)O)C(=O)N[C@H](C(=O)N[C@H](C(=O)N[C@@H](CCC(N)=O)C(=O)O)C(C)C)[C@@H](C)CC	4.52
CC[C@H](C)[C@H](NC(=O)[C@H](CC(C)C)NC[C@H](Cc1ccccc1)NC(=O)CNC(=O)[C@H](CCCCN)NC(=O)[C@@H](N)CC(=O)O)C(=O)N[C@H](C(=O)N[C@@H](CCCCN)C(=O)O)C(C)C	4.73
CC[C@H](C)[C@H](N)C(=O)N[C@H](C(=O)NCC(=O)N[C@H](CN[C@@H](Cc1ccc(O)cc1)C(=O)N[C@H](C(=O)N[C@H](C(=O)N[C@@H](C)C(=O)O)C(C)C)[C@@H](C)CC)Cc1ccccc1)[C@@H](C)O	4.27
CC[C@H](C)[C@H](NC(=O)[C@H](C)NC(=O)[C@@H](N)CC1CCCCC1)C(=O)N[C@H](CN[C@@H](Cc1ccc(O)cc1)C(=O)N[C@@H](CCSC)C(=O)N[C@@H](Cc1ccc(O)cc1)C(=O)N[C@@H](Cc1ccc(O)cc1)C(=O)O)Cc1ccccc1	7.00
CC[C@H](C)[C@H](NC(=O)[C@H](CCSC)NC(=O)[C@H](CO)NC(=O)[C@H](CC1CCCCC1)NC[C@H](Cc1ccccc1)NC(=O)[C@H](CC1CCCCC1)NC(=O)[C@H](CO)NC(=O)[C@@H](N)CC(=O)O)C(=O)O	5.00
CC[C@H](C)[C@H](NC[C@H](Cc1ccccc1)NC(=O)[C@H](Cc1c[nH]cn1)NC(=O)[C@H](CCCCN)NC(=O)[C@@H](N)CC(=O)O)C(=O)N[C@H](C(=O)N[C@H](C(=O)N[C@@H](CCCCN)C(=O)O)C(C)C)[C@@H](C)CC	4.70
CC[C@H](C)[C@H](N)C(=O)N[C@@H](CC(=O)O)C(=O)NCC(=O)N[C@@H](CCCCN)CN[C@@H](CC(C)C)C(=O)N[C@@H](Cc1ccc(O)cc1)C(=O)N[C@@H](C)C(=O)N1CCC[C@H]1C(=O)O [1-{2-[2-[2-(6-Amino-2-{2-[2-(2-amino-3-methyl-pentanoylamino)-3-carboxy-propionylamino]-acetylamino}-hexylamino)-4-methyl-pentanoylamino]-3-(4-hydroxy-phenyl)-propionylamino]-propionyl}-pyrrolidine-2-carboxylic acid]	5.28
CC[C@H](C)[C@H](NC(=O)[C@H](C)NC[C@H](Cc1ccccc1)NC(=O)[C@H](CCCNC(=N)N)NC(=O)[C@H](Cc1c[nH]c2ccccc12)NC(=O)[C@@H](N)CCSC)C(=O)N[C@H](C(=O)N[C@H](C(=O)O)[C@@H](C)O)[C@@H](C)CC [2-(2-{2-[2-(2-{2-[2-(2-Amino-4-methylsulfanyl-butyrylamino)-3-(1H-indol-3-yl)-propionylamino]-5-guanidino-pentanoylamino}-3-phenyl-propylamino)-propionylamino]-3-methyl-pentanoylamino}-3-methyl-pentanoylamino)-3-hydroxy-butyric acid]	5.19
CC[C@H](C)[C@H](N)C(=O)N[C@H](C(=O)N[C@H](C(=O)N[C@@H](CCCCN)CN[C@@H](C)C(=O)N[C@H](C(=O)N[C@@H](CC1CCCCC1)C(=O)N[C@H](C(=O)O)[C@@H](C)O)[C@@H](C)CC)[C@@H](C)O)C(C)C [2-(2-{2-[2-(6-Amino-2-{2-[2-(2-amino-3-methyl-pentanoylamino)-3-methyl-butyrylamino]-3-hydroxy-butyrylamino}-hexylamino)-propionylamino]-3-methyl-pentanoylamino}-3-cyclohexyl-propionylamino)-3-hydroxy-butyric acid]	4.00
CC[C@H](C)[C@H](NC(=O)[C@H](CC(C)C)NC[C@H](CCCNC(=N)N)NC(=O)CNC(=O)[C@H](CC1CCCCC1)NC(=O)[C@@H](N)C(C)C)C(=O)N[C@@H](Cc1cnc[nH]1)C(=O)N[C@@H](CC(=O)O)C(=O)O [2-[2-{2-[2-(2-{2-[2-(2-Amino-3-methyl-butyrylamino)-3-cyclohexyl-propionylamino]-acetylamino}-5-guanidino-pentylamino)-4-methyl-pentanoylamino]-3-methyl-pentanoylamino}-3-(3H-imidazol-4-yl)-propionylamino]-succinic acid]	4.15
C[C@H](NC[C@H](Cc1ccccc1)NC(=O)[C@H](CCCCN)NC(=O)[C@H](CCCCN)NC(=O)[C@@H](N)CC(=O)O)C(=O)N[C@@H](CC1CCCCC1)C(=O)NCC(=O)N[C@@H](CCCCN)C(=O)O [6-Amino-2-(2-{2-[2-(2-{6-amino-2-[6-amino-2-(2-amino-3-carboxy-propionylamino)-hexanoylamino]-hexanoylamino}-3-phenyl-propylamino)-propionylamino]-3-cyclohexyl-propionylamino}-acetylamino)-hexanoic acid]	4.51
CC[C@H](C)[C@H](NC(=O)[C@H](CC(N)=O)NC(=O)[C@H](Cc1ccccc1)NC[C@H](CCCCN)NC(=O)[C@H](CC1CCCCC1)NC(=O)[C@H](CC1CCCCC1)NC(=O)[C@@H](N)CC1CCCCC1)C(=O)N[C@@H](CCCCN)C(=O)O [6-Amino-2-(2-{2-[2-(6-amino-2-{2-[2-(2-amino-3-cyclohexyl-propionylamino)-3-cyclohexyl-propionylamino]-3-cyclohexyl-propionylamino}-hexylamino)-3-phenyl-propionylamino]-3-carbamoyl-propionylamino}-3-methyl-pentanoylamino)-hexanoic acid]	5.20
C[C@H](NC[C@H](CCCCN)NC(=O)[C@H](Cc1ccccc1)NC(=O)[C@H](CCCCN)NC(=O)[C@@H](N)CC(=O)O)C(=O)N[C@@H](CC1CCCCC1)C(=O)NCC(=O)N[C@@H](CCCCN)C(=O)O [6-Amino-2-(2-{2-[2-(6-amino-2-{2-[6-amino-2-(2-amino-3-carboxy-propionylamino)-hexanoylamino]-3-phenyl-propionylamino}-hexylamino)-propionylamino]-3-cyclohexyl-propionylamino}-acetylamino)-hexanoic acid]	6.22
NCCCC[C@H](NC(=O)[C@H](CC(N)=O)NC(=O)[C@H](Cc1ccccc1)NC(=O)[C@H](CO)NC[C@H](CCCN=C(N)N)NC(=O)[C@H](Cc1ccccc1)NC(=O)[C@H](CCCCN)NC(=O)[C@@H]1CCCN1)C(=O)O [6-Amino-2-[2-(2-{2-[2-(2-{6-amino-2-[(pyrrolidine-2-carbonyl)-amino]-hexanoylamino}-3-phenyl-propionylamino)-5-guanidino-pentylamino]-3-hydroxy-propionylamino}-3-phenyl-propionylamino)-3-carbamoyl-propionylamino]-hexanoic acid]	5.06
CC(C)C[C@H](NC[C@H](Cc1ccccc1)NC(=O)[C@H](Cc1cnc[nH]1)NC(=O)[C@H](CCCCN)NC(=O)[C@@H](N)CC(=O)O)C(=O)N[C@@H](CC(C)C)C(=O)N[C@H](C(=O)N[C@@H](CCCCN)C(=O)O)C(C)C [6-Amino-2-{2-[2-(2-{2-[2-[6-amino-2-(2-amino-3-carboxy-propionylamino)-hexanoylamino]-3-(3H-imidazol-4-yl)-propionylamino]-3-phenyl-propylamino}-4-methyl-pentanoylamino)-4-methyl-pentanoylamino]-3-methyl-butyrylamino}-hexanoic acid]	6.00
CSCC[C@H](NC(=O)[C@H](Cc1ccc(O)cc1)NC[C@H](Cc1ccccc1)NC(=O)[C@H](CC(C)C)NC(=O)[C@H](C)NC(=O)[C@@H](N)CC1CCCCC1)C(=O)N[C@@H](Cc1ccc(O)cc1)C(=O)N[C@@H](Cc1ccc(O)cc1)C(=O)O [ChaALF(CH2NH)YMYY]	5.96
H-AIWYWAAV-OH [2-(2-{2-[2-[2-[2-[2-(2-Amino-propionylamino)-3-methyl-pentanoylamino]-3-(1H-indol-3-yl)-propionylamino]-3-(4-hydroxy-phenyl)-propionylamino]-3-(1H-indol-3-yl)-propionylamino]-propionylamino}-propionylamino)-3-methyl-butyric acid]	4.35
